Legend:
Type in all cases: functional
NCI-H226 = test: Growth inhibition of human NCI-H226 cells after 48 hrs by sulforhodamine B assay; conditions: NCI-H226, 48 h
MKN-74 = test: Growth inhibition of human MKN74 cells after 48 hrs by sulforhodamine B assay; conditions: MKN-74, 48 h
MKN-28 = test: Growth inhibition of human MKN28 cells after 48 hrs by sulforhodamine B assay; conditions: MKN-28, 48 h
MKN-7 = test: Growth inhibition of human MKN7 cells after 48 hrs by sulforhodamine B assay; conditions: MKN-7, 48 h
ACHN = test: Growth inhibition of human ACHN cells after 48 hrs by sulforhodamine B assay
SF-295 = test: Growth inhibition of human SF295 cells after 48 hrs by sulforhodamine B assay; conditions: SF-295, 48 h
St-4 = test: Growth inhibition of human St-4 cells after 48 hrs by sulforhodamine B assay; conditions: St-4, 48 h
NCI-H23 = test: Growth inhibition of human NCI-H23 cells after 48 hrs by sulforhodamine B assay; conditions: NCI-H23, 48 h
OVCAR-5 = test: Growth inhibition of human OVCAR5 cells after 48 hrs by sulforhodamine B assay; conditions: OVCAR-5, 48 h
OVCAR-3 = test: Growth inhibition of human OVCAR3 cells after 48 hrs by sulforhodamine B assay; conditions: OVCAR-3, 48 h
OVCAR-8 = test: Growth inhibition of human OVCAR8 cells after 48 hrs by sulforhodamine B assay; conditions: OVCAR-8, 48 h
HT-29 = test: Growth inhibition of human HT-29 cells after 48 hrs by sulforhodamine B assay; conditions: HT-29, 48 h
DU-145 = test: Growth inhibition of human DU145 cells after 48 hrs by sulforhodamine B assay; conditions: DU-145, 48 h
MDA-MB-231 = test: Growth inhibition of human MDA-MB-231 cells after 48 hrs by sulforhodamine B assay; conditions: MDA-MB-231, 48 h
SNB-75 = test: Growth inhibition of human SNB75 cells after 48 hrs by sulforhodamine B assay; conditions: SNB-75, 48 h
PC-3 = test: Growth inhibition of human PC3 cells after 48 hrs by sulforhodamine B assay; conditions: PC-3, 48 h
[1] = Growth inhibition of human HBC4 cells after 48 hrs by sulforhodamine B assay; conditions: HBC4, 48 h
HCT-116 = test: Growth inhibition of human HCT116 cells after 48 hrs by sulforhodamine B assay; conditions: HCT-116, 48 h
DMS-273 = test: Growth inhibition of human DMS273 cells after 48 hrs by sulforhodamine B assay; conditions: DMS-273, 48 h
[2] = Growth inhibition of human MKN1 cells after 48 hrs by sulforhodamine B assay; conditions: MKN-1, 48 h
SK-OV-3 = test: Growth inhibition of human SKOV3 cells after 48 hrs by sulforhodamine B assay; conditions: SK-OV-3, 48 h
NCI-H522 = test: Growth inhibition of human NCI-H522 cells after 48 hrs by sulforhodamine B assay; conditions: NCI-H522, 48 h
SNB-78 = test: Growth inhibition of human SNB78 cells after 48 hrs by sulforhodamine B assay; conditions: SNB-78, 48 h
[3] = Growth inhibition of human HBC5 cells after 48 hrs by sulforhodamine B assay; conditions: HBC5, 48 h
NCI-H460 = test: Growth inhibition of human NCI-H460 cells after 48 hrs by sulforhodamine B assay; conditions: NCI-H460, 48 h
KM12 = test: Growth inhibition of human KM12 cells after 48 hrs by sulforhodamine B assay; conditions: KM12, 48 h
[4] = Growth inhibition of human RXF631L cells after 48 hrs by sulforhodamine B assay; conditions: RXF 631, 48 h
LOX IMVI = test: Growth inhibition of human LOXIMVI cells after 48 hrs by sulforhodamine B assay
[5] = Growth inhibition of human HCC2998 cells after 48 hrs by sulforhodamine B assay; conditions: HCC 2998, 48 h
OVCAR-4 = test: Growth inhibition of human OVCAR4 cells after 48 hrs by sulforhodamine B assay; conditions: OVCAR-4, 48 h
MKN-45 = test: Growth inhibition of human MKN45 cells after 48 hrs by sulforhodamine B assay; conditions: MKN-45, 48 h
SF-268 = test: Growth inhibition of human SF268 cells after 48 hrs by sulforhodamine B assay; conditions: SF-268, 48 h
SF-539 = test: Growth inhibition of human SF539 cells after 48 hrs by sulforhodamine B assay; conditions: SF-539, 48 h
U-251 = test: Growth inhibition of human U251 cells after 48 hrs by sulforhodamine B assay; conditions: U-251, 48 h
MCF7 = test: Growth inhibition of human MCF7 cells after 48 hrs by sulforhodamine B assay; conditions: MCF7, 48 h
HCT-15 = test: Growth inhibition of human HCT15 cells after 48 hrs by sulforhodamine B assay; conditions: HCT-15, 48 h
DMS-114 = test: Growth inhibition of human DMS114 cells after 48 hrs by sulforhodamine B assay; conditions: DMS-114, 48 h
[6] = Growth inhibition of human BSY1 cells after 48 hrs by sulforhodamine B assay; conditions: BSY-1, 48 h
A549 = test: Growth inhibition of human A549 cells after 48 hrs by sulforhodamine B assay; conditions: A549, 48 h

| GI50 (NCI-H226) [µM] | GI50 (MKN-74) [µM] | GI50 (MKN-28) [µM] | GI50 (MKN-7) [µM] | GI50 (ACHN) [µM] | GI50 (NCI-H23) [µM] | GI50 (OVCAR-5) [µM] | GI50 (OVCAR-3) [µM] | GI50 (OVCAR-8) [µM] | GI50 (HT-29) [µM] | GI50 (DU-145) [µM] | GI50 (MDA-MB-231) [µM] | GI50 (PC-3) [µM] | GI50 (HCT-116) [µM] | SMILES | GI50 (SF-295) [µM] | GI50 (St-4) [µM] | GI50 (SNB-75) [µM] | GI50 [1] [µM] | GI50 (DMS-273) [µM] | GI50 [2] [µM] | also measured |
| --- | --- | --- | --- | --- | --- | --- | --- | --- | --- | --- | --- | --- | --- | --- | --- | --- | --- | --- | --- | --- | --- |
| 52.5 | 22.9 | 4.37 | 6.17 | 87.1 | 0.912 | > 100 | > 100 | > 100 | 75.9 | > 100 | 32.4 | > 100 | 9.12 | CCCCCCCCCCCC[C@@H](O)[C@H]1CC[C@H]([C@H](O)CCCCCCCCCCCCc2ccnn2C)O1 | 24 | 64.6 | > 100 | > 100 | 49 | > 100 | GI50 (SK-OV-3): 77.6 µM; GI50 (NCI-H522): 3.8 µM; GI50 (SNB-78): > 100 µM; GI50 [3]: 69.2 µM; GI50 (NCI-H460): > 100 µM; GI50 (KM12): 70.8 µM; GI50 [4]: > 100 µM; GI50 (LOX IMVI): > 100 µM; GI50 [5]: 79.4 µM; GI50 (OVCAR-4): 37.2 µM; GI50 (MKN-45): > 100 µM; GI50 (SF-268): > 100 µM; GI50 (SF-539): 37.2 µM; GI50 (U-251): > 100 µM; GI50 (MCF7): 26.9 µM; GI50 (HCT-15): > 100 µM; GI50 (DMS-114): 0.55 µM; GI50 [6]: 32.4 µM; GI50 (A549): 30.9 µM |
| 28.2 | 30.9 | 2.51 | 0.617 | 57.5 | 11 | > 100 | > 100 | > 100 | 32.4 | > 100 | > 100 | 28.2 | 3.98 | CCCCCCCCCCCC[C@@H](O)[C@H]1CC[C@H]([C@H](O)CCCCCCCCCCOC(=O)c2ccnn2C)O1 | 30.9 | 30.2 | > 100 | 51.3 | 38 | 43.7 | GI50 (SK-OV-3): > 100 µM; GI50 (NCI-H522): 6.31 µM; GI50 (SNB-78): 44.7 µM; GI50 [3]: 25.7 µM; GI50 (NCI-H460): 34.7 µM; GI50 (KM12): 20 µM; GI50 [4]: > 100 µM; GI50 (LOX IMVI): 12.9 µM; GI50 [5]: 46.8 µM; GI50 (OVCAR-4): > 100 µM; GI50 (MKN-45): > 100 µM; GI50 (SF-268): > 100 µM; GI50 (SF-539): > 100 µM; GI50 (U-251): 69.2 µM; GI50 (MCF7): 22.9 µM; GI50 (HCT-15): 47.9 µM; GI50 (DMS-114): 0.407 µM; GI50 [6]: 0.813 µM; GI50 (A549): 56.2 µM |
| 3.31 | 1.29 | 0.501 | 0.309 | 3.09 | 0.646 | 3.09 | 1.51 | 1.58 | 3.02 | 4.37 | 2.19 | 2.29 | 1.1 | CCCCCCCCCCCC[C@@H](O)[C@H]1CC[C@H]([C@H](O)CCCCCCCCCCNCc2ccnn2C)O1 | 1.2 | 1.82 | 2 | 1.82 | 1.58 | 1.41 | GI50 (SK-OV-3): 2.09 µM; GI50 (NCI-H522): 1.29 µM; GI50 (SNB-78): 2.09 µM; GI50 [3]: 2.09 µM; GI50 (NCI-H460): 1.7 µM; GI50 (KM12): 1.41 µM; GI50 [4]: 2.4 µM; GI50 (LOX IMVI): 1.2 µM; GI50 [5]: 1.82 µM; GI50 (OVCAR-4): 1.58 µM; GI50 (MKN-45): 1.82 µM; GI50 (SF-268): 3.63 µM; GI50 (SF-539): 1.58 µM; GI50 (U-251): 1.51 µM; GI50 (MCF7): 1.7 µM; GI50 (HCT-15): 2 µM; GI50 (DMS-114): 0.129 µM; GI50 [6]: 0.339 µM; GI50 (A549): 8.71 µM |

— ChEMBL document CHEMBL2380246, “Structure-activity relationships of hybrid annonaceous acetogenins: powerful growth inhibitory effects of their connecting groups between heterocycle and hydrophobic carbon chain bearing THF ring on human cancer cell lines” (2013)
